# Data published in US20260374809A1, “COMPOUNDS USEFUL FOR THE TREATMENT AND/OR CARE OF THE SKIN, HAIR, NAILS AND/OR MUCOUS MEMBRANES” (Lubrizol Advanced Materials, Inc., priority 2022, published 2026).
# Where a SMILES comes first, the peptide text is derived from it. [ ]: non-standard residue; d: D form. The star is where a group is joined. Palmitoyl = CCCCCCCCCCCCCCCC(=O)*
# Tested on: Human dermal fibroblast (HDF)
# Assay: Collagen contraction assay with human dermal fibroblasts in collagen gel
# Assay type: cell-based
# Details: 0.01 mg/ml; basal control = 100, positive control with MES = 159.7
# Source text: It is known that a remarkable change in the mechanical properties of the skin with aging is due to reduced contractile capacity as well as reduced migration activity of fibroblasts. Healthy fibroblasts induce contraction of the collagen network through physical interactions with collagen fibers. The collagen network is essential for maintaining the firmness of the skin. The collagen contraction assay is a well-known experimental approach to measuring the cell-induced contraction of the extracellular matrix. In this assay, the capacity of fibroblasts, embedded in a collagen-based gel, to reduce the gel diameter is evaluated.
# By improving the contractile forces, the mechanical tension can be improved, which can be associated to “lifting” effect at the scale of fibroblasts.
# The microcurrent system was built by coupling gold electrodes (in order to avoid medium oxidation leading to cell death when current goes through) to opposite sides of 60 mm Petri dishes (separated by 4 cm). When a voltage is applied, an electric field generates between opposite positive and negative poles and current passes through the culture. During the stimulation time (2 hours), each of the 60 mm Petri dishes is connected to a voltage source that allows regulating the amount of current that passes through each of them. For these experiments, a […] current (which corresponds to approx. 67 mV/mm) was used.
# Human dermal fibroblast (HDF) cell culture and expansion: Cells were thawed in T75 flasks and the growth medium was changed every 2 days of cell culture. After 7 days, cells were expanded to obtain a total amount of 7×10^6 cells to be used in the experiments.
# Once finished the expansion, cultures are trypsinized and seeded at 3×10^5 cells/60 mm Petri up to a total of 10 dishes per replicate. These ten dishes correspond to one experiment (Control/-MES vs+MES) at a specific concentration. Peptide treatment was performed at 0.01 mg/ml.
# After an overnight (O/N) incubation to allow cell attachment, each Petri dish is treated at the corresponding concentration with 4 ml of specific medium for a total of 24 hours in both conditions (without MES and with MES). Peptide treatment on the dishes that are not stimulated with microcurrent is initiated 2 hours in advance, and their passage into 3D cultures occurs at the same time as the microcurrent stimulation of the other dishes. […]
# Each 3D culture is prepared by mixing collagen solution with the culture medium corresponding to each of the conditions (without peptide or with peptide). […] Images of collagen gel diameter are taken of each well at 24 hours post detachment and analyzed by ImageJ. […]
# [formula] • An initial area is stablished. […] Area t=0 gel […]1.86 cm^2 (Area of a well in a 24-well plate) • Quantification of Area at t=x; Ax. […]
row,Compound,"Collagen contraction, MEAN (comparative peptides)"
1,CSCC[C@H](NC(=O)[C@@H](CCC(N)=O)NC(=O)[C@H](CCCNC(=N)N)NC(=O)[C@H](CCCNC(=N)N)NC(C)=O)C(=O)N[C@@H](CCC(=O)O)C(=O)N[C@@H](CCC(=O)O)C(N)=O [Ac-Arg-Arg-D-Gln-Met-Glu-Glu-NH2] (Ac-RR[dQ]MEE-NH2),82.5
2,CC(=O)N[C@@H](CC(=O)O)C(=O)N[C@H](C(=O)N[C@@H](Cc1ccc(O)cc1)C(=O)N[C@@H](CCCCN)C(N)=O)C(C)C [Ac-Asp-Val-Tyr-Lys-NH2] (Ac-DVYK-NH2),91.6
3,H-ALKPNT-NH2 [H-Ala-Leu-Lys-Pro-Asn-Thr-NH2],101.4

# Tested on: Musclebind Like Protein 1 (MBNL1)
# Assay: MBNL1 protein expression in human skeletal muscle cells (hSKMC), HTRF
# Assay type: cell-based
# Details: 0.5 mg/ml, 48 hours, relative to basal control
# Procedure: Musclebind Like Protein 1 (MBNL1) in Human Skeletal Muscle Cells (hSKMC)
# An increase of MBNL-1 in muscle cells helps maintaining the tone of facial skin muscles. Thus, compounds able to enhance MBNL-1 can be used as a good approach for cosmetic treatment of sagging facial appearance.
# Human skeletal muscle cells (hSKMC) were cultured at 100,000 cells in T25 flasks with growth medium. After 4 days, cells reached around 80% of confluency and were seeded at 150,000 cells per well in 12-well plates in growth medium. Cells were incubated for 72 hours and then they were changed to differentiation medium and incubated during 48 hours. At the end of this period, cells were treated with defined peptides (0.5 mg/ml) and with medium alone for control conditions during 48 hours in differentiation medium. Cells were also treated with 2 mM of ketoprofen as a positive control.
# After the incubation period, cells were lysed and frozen at −80 °C. For total protein quantification protein extract was measured by Bicinchoninic Acid (BCA) method. MBNL1 protein detection was performed by Homogeneous Time Resolved Fluorescence (HTRF) technology. Normalization of MBNL1 levels were performed by total protein quantification for each condition. Results are expressed as a relative MBNL1 protein level respect to control conditions. At least 3 replicates were carried out per condition.
row,Compound,% MBNL1 vs Basal control [%]
1,"CC(C)C[C@H](N)C(=O)N1CCC[C@H]1C(=O)N[C@H](C(=O)N[C@H](C(N)=O)[C@@H](C)O)C(C)C [PEP-2, H-Leu-Pro-Val-Thr-NH2] (H-LPVT-NH2)",183.2
2,"CCCCCCCCCCCCCCCC(=O)N[C@@H](CC(C)C)C(=O)N1CCC[C@H]1C(=O)N[C@H](C(=O)N[C@H](C(=O)O)[C@@H](C)O)C(C)C [PEP-3, Palm-Leu-Pro-Val-Thr-OH] (Palmitoyl-LPVT-OH)",160.4
3,"CC(=O)N[C@@H](CC(C)C)C(=O)N1CCC[C@H]1C(=O)N[C@H](C(=O)N[C@H](C(=O)O)[C@@H](C)O)C(C)C [PEP-4, Ac-Leu-Pro-Val-Thr-OH] (Ac-LPVT-OH)",131.3
4,"CC(=O)N[C@@H](CC(C)C)C(=O)N1CCC[C@H]1C(=O)N[C@H](C(=O)N[C@H](C(N)=O)[C@@H](C)O)C(C)C [PEP-5, Ac-Leu-Pro-Val-Thr-NH2] (Ac-LPVT-NH2)",213.7
5,"CC(C)C[C@H](N)C(=O)N[C@@H](C)C(=O)N[C@H](C(=O)N[C@H](C(=O)O)[C@@H](C)O)C(C)C [PEP-6, H-Leu-Ala-Val-Thr-OH] (H-LAVT-OH)",157.0
6,"CC[C@H](C)[C@H](NC(=O)[C@@H]1CCCN1C(=O)[C@@H](N)CC(C)C)C(=O)N[C@H](C(=O)O)[C@@H](C)O [PEP-7, H-Leu-Pro-Ile-Thr-OH] (H-LPIT-OH)",156.3
7,"CC(C)[C@H](N)C(=O)N1CCC[C@H]1C(=O)N[C@H](C(=O)N[C@H](C(=O)O)[C@@H](C)O)C(C)C [PEP-8, H-Val-Pro-Val-Thr-OH] (H-VPVT-OH)",131.3
8,"CC(C)C[C@H](N)C(=O)NCC(=O)N[C@H](C(=O)N[C@H](C(=O)O)[C@@H](C)O)C(C)C [PEP-9, H-Leu-Gly-Val-Thr-OH] (H-LGVT-OH)",122.4
9,"CC(C)C[C@H](NC(=O)[C@@H]1CCCN1C(=O)[C@@H](N)CC(C)C)C(=O)N[C@H](C(=O)O)[C@@H](C)O [PEP-10, H-Leu-Pro-Leu-Thr-OH] (H-LPLT-OH)",222.0
10,"CC(C)C[C@H](N)C(=O)N1CCC[C@H]1C(=O)N[C@H](C(=O)O)C(C)C [PEP-12, H-Leu-Pro-Val-OH] (H-Leu-Pro-Val-OH)",177.8
11,"CC[C@H](C)[C@H](N)C(=O)N1CCC[C@H]1C(=O)N[C@H](C(=O)N[C@H](C(=O)O)[C@@H](C)O)[C@@H](C)CC [PEP-13, H-Ile-Pro-Ile-Thr-OH] (H-IPIT-OH)",133.3
12,"H-ALPVT-OH [PEP-11, H-Ala-Leu-Pro-Val-Thr-OH]",259.0

# Tested on: eyebrow
# Assay: In vivo eyebrow lifting effect in Caucasian volunteers (FrameScan image analysis)
# Design: species or system human
# Details: 28 days; result in words
# Procedure: The study was carried out for 28 days. Forty-six (46) volunteers aged between 40 and 65 years old were included in the study and were divided into two groups. The first group included 36 volunteers (31 women and 5 men) which applied the composition described in Example 5 on half face and placebo (same composition without peptide) on the other half, twice a day for 28 days. The second group of 10 volunteers (9 women and 1 man) used a microcurrent device (Nuface®) with an activator gel without active ingredients once a day. Volunteers using the microcurrent device were trained on how to apply the activator gel and how to use the device to standardize its application among them. […]
# Volunteers' facial images were acquired at initial time and after 28 days of product application. The efficacy of the product was assessed by the measurement of a diagonal distance between eyelashes and eyebrows obtained from image analysis with FrameScan® software. The diagonal distance was calculated by drawing a horizontal line between a point at the start of the eyelashes and a point at the end of eyelashes (the eyelashes' line). […]
# A study was carried out for 28 days for determining the lifting effect of Ac-Asp-Val-Tyr-Lys-NH2 (not according to the invention). […] The eyebrow lifting effect was determined as disclosed in Example 12.
row,Compound,Lifting effect
1,CC(=O)N[C@@H](CC(=O)O)C(=O)N[C@H](C(=O)N[C@@H](Cc1ccc(O)cc1)C(=O)N[C@@H](CCCCN)C(N)=O)C(C)C [Ac-Asp-Val-Tyr-Lys-NH2] (Ac-DVYK-NH2),did not have a lifting effect
